From patent US7384629B2, “Biological control of nematodes with Hirsutella minnesotensis” (Regents of the University of Minnesota, priority 2000, dated 2008)
Read-outs that look alike come from different tables or passages of the source.

Assays:
Hirsutella rhossiliensis [1] = conditions: for Growth rate mm-in-diam, on agar: named vitamin excluded from medium with all other vitamins; for Growth rate mm-in-diam, on agar / Sporulation 10^3/cm^2, on agar / growth in liquit culture (visual rating): 5 weeks; for Spore germination %, on agar / Sporulation 10^3/cm^2, on agar / growth in liquit culture (visual rating): named vitamin excluded
soybean cyst nematode = experiment: 1998 field trial (Waseca): SCN population, fungal parasitism, soybean growth; format: in vivo, Heterodera glycines
Experimental: (§1) A field experiment was conducted at one site in Waseca in 1998. Fungi used in this study included three species of egg-parasitic fungi, Verticillium chlamydosporium from Florida, ARF18 from Arkansas, and Cylindrocarpon destructans from Minnesota, and two species of juvenile-parasitic fungi, Hirsutella rhossiliensis and Hirsutella minnesotensis from Minnesota. The fungi were cultured on corn-grits, applied in furrow and mixed into soil. Additionally, aldicarb (nematicide) and lorsban (insecticide) were included for a comparison purpose. Plots applied with fungal culture medium, without addition of the culture medium, and plots with a resistant cultivar Pioneer 9234 were included as controls. Each plot consisted of two rows with row spacing of 30 inches and row length of 15 feet. The plots were separated by four rows without application of agents. Four replicates were used. Nematode egg density at planting, and egg density and juvenile density 2 months after planting and at harvest were determined. […] Levels of fungal parasitism of nematode eggs and juveniles were measured 2 months after planting and at harvest.

Heterodera glycines = format: in vivo
Experimental: as §1
Other procedures applied in 2000 were the same as used in 1999.

Hirsutella rhossiliensis [2] = experiment: Effect of nitrogen source on growth, sporulation and spore germination; conditions: for Growth mm-in-diam, on agar: nitrogen source 0.3296 g/L nitrogen; for Growth mm-in-diam, on agar / Sporulation 10^3/cm^2, on agar / growth in liquit culture (visual rating): 5 weeks; for Spore germination %, on agar / Sporulation 10^3/cm^2, on agar / growth in liquit culture (visual rating): nitrogen source

SMILES: CC(C)(CO)C(O)C(=O)NCCC(=O)O (racemic) [DL-pantothenic acid]
- Growth rate mm-in-diam, on agar (Hirsutella rhossiliensis [1]; isolate ATCC46487): 39.5 mm-in-diam
- Growth rate mm-in-diam, on agar (Hirsutella rhossiliensis [1]; isolate JA16-1): 18.8 mm-in-diam
- Growth rate mm-in-diam, on agar (Hirsutella rhossiliensis [1]; isolate OWVT-1): 29.3 mm-in-diam
- Spore germination %, on agar (Hirsutella rhossiliensis [1]; isolate ATCC46487): 72.2%
- Sporulation 10^3/cm^2, on agar (Hirsutella rhossiliensis [1]; isolate ATCC46487): 28.6 10^3/cm^2
- Spore germination %, on agar (Hirsutella rhossiliensis [1]; isolate JA16-1): 88.9%
- Sporulation 10^3/cm^2, on agar (Hirsutella rhossiliensis [1]; isolate JA16-1): 17.1 10^3/cm^2
- growth in liquit culture (visual rating) (Hirsutella rhossiliensis [1]; isolate JA16-1): I
- Spore germination %, on agar (Hirsutella rhossiliensis [1]; isolate OWVT-1): 55.6%
- Sporulation 10^3/cm^2, on agar (Hirsutella rhossiliensis [1]; isolate OWVT-1): 9.9 10^3/cm^2

SMILES: CNC(=O)O/N=C/C(C)(C)SC [Aldicarb, aldicarb]
- % J2 parasitized, End season (soybean cyst nematode; in vivo): 4%
- % J2 parasitized, Midseason (soybean cyst nematode; in vivo): 0%
- Egg population, At planting, Eggs/100 cm^3 soil (soybean cyst nematode; in vivo): 772 Eggs/100 cm^3 soil
- Egg population, End season, % Reduction (soybean cyst nematode; in vivo): 64%
- Egg population, End season, Eggs/100 cm^3 soil (soybean cyst nematode; in vivo): 4,788 Eggs/100 cm^3 soil
- Egg population, Midseason, % Reduction (soybean cyst nematode; in vivo): 58%
- Egg population, Midseason, Eggs/100 cm^3 soil (soybean cyst nematode; in vivo): 1,200 Eggs/100 cm^3 soil
- Juvenile (J2) population, End season, % Reduction (soybean cyst nematode; in vivo): 66%
- Juvenile (J2) population, End season, J2/100 cm^3 soil (soybean cyst nematode; in vivo): 98
- Juvenile (J2) population, Midseason, % Reduction (soybean cyst nematode; in vivo): 54%
- Juvenile (J2) population, Midseason, J2/100 cm^3 soil (soybean cyst nematode; in vivo): 129
- Plant growth: Emergence rate (%) (soybean cyst nematode; in vivo): 88.4%
- Reproduction rate Pf/Pi (soybean cyst nematode; in vivo): 6.5
- Reproduction rate Pf/Pm (soybean cyst nematode; in vivo): 4.5
- Reproduction rate Pm/Pi (soybean cyst nematode; in vivo): 1.6
- Plant growth: Yield (Bul/Acre) (soybean cyst nematode; soybean, 1998 field plots, 1200 g ai/acre): 23.0 Bul/Acre
- % J2 parasitizd, Midseason (Heterodera glycines; in vivo): 12.9a %
- Eggs/100 cc soil, At harvest (Heterodera glycines; in vivo): 13,975b Eggs/100 cc soil
- Eggs/100 cc soil, Midseason (Heterodera glycines; in vivo): 1,166bc Eggs/100 cc soil
- J2/100 cc soil, Midseason (Heterodera glycines; in vivo): 141bc
- Yield bu/A (Heterodera glycines; soybean, 2000 field plots, means of four replicates): 55.5a bu/A

SMILES: Nc1nc2ncc(CNc3ccc(C(=O)N[C@@H](CCC(=O)O)C(=O)O)cc3)nc2c(=O)[nH]1 [Folic acid]
- Growth rate mm-in-diam, on agar (Hirsutella rhossiliensis [1]; isolate ATCC46487): 39.3 mm-in-diam
- Growth rate mm-in-diam, on agar (Hirsutella rhossiliensis [1]; isolate JA16-1): 19.7 mm-in-diam
- Growth rate mm-in-diam, on agar (Hirsutella rhossiliensis [1]; isolate OWVT-1): 28.7 mm-in-diam
- Spore germination %, on agar (Hirsutella rhossiliensis [1]; isolate ATCC46487): 82.2%
- Sporulation 10^3/cm^2, on agar (Hirsutella rhossiliensis [1]; isolate ATCC46487): 59.7 10^3/cm^2
- Spore germination %, on agar (Hirsutella rhossiliensis [1]; isolate JA16-1): 87.8%
- Sporulation 10^3/cm^2, on agar (Hirsutella rhossiliensis [1]; isolate JA16-1): 24.2 10^3/cm^2
- growth in liquit culture (visual rating) (Hirsutella rhossiliensis [1]; isolate JA16-1): I
- Spore germination %, on agar (Hirsutella rhossiliensis [1]; isolate OWVT-1): 61.1%
- Sporulation 10^3/cm^2, on agar (Hirsutella rhossiliensis [1]; isolate OWVT-1): 15.4 10^3/cm^2

SMILES: N[C@@H](Cc1ccccc1)C(=O)O [L-Phenylalanine]
- Growth mm-in-diam, on agar (Hirsutella rhossiliensis [2]; isolate ATCC46487): 34.3 mm-in-diam
- Growth mm-in-diam, on agar (Hirsutella rhossiliensis [2]; isolate JA16-1): 11.7 mm-in-diam
- Growth mm-in-diam, on agar (Hirsutella rhossiliensis [2]; isolate OWVT-1): 17.5 mm-in-diam
- Spore germination %, on agar (Hirsutella rhossiliensis [2]; isolate ATCC46487): 77.8%
- Sporulation 10^3/cm^2, on agar (Hirsutella rhossiliensis [2]; isolate ATCC46487): 7.9 10^3/cm^2
- Spore germination %, on agar (Hirsutella rhossiliensis [2]; isolate JA16-1): 86.7%
- Sporulation 10^3/cm^2, on agar (Hirsutella rhossiliensis [2]; isolate JA16-1): 79.0 10^3/cm^2
- Spore germination %, on agar (Hirsutella rhossiliensis [2]; isolate OWVT-1): 68.3%
- Sporulation 10^3/cm^2, on agar (Hirsutella rhossiliensis [2]; isolate OWVT-1): 15.9 10^3/cm^2
- growth in liquit culture (visual rating) (Hirsutella rhossiliensis [2]; isolate OWVT-1): IV (IV = the pellet diameter larger than 1 cm, but the total volume distribution less than 5 ml)

SMILES: N[C@@H](CSSC[C@H](N)C(=O)O)C(=O)O [L-cystine]
- Growth mm-in-diam, on agar (Hirsutella rhossiliensis [2]; isolate ATCC46487): 0.0 mm-in-diam
- Growth mm-in-diam, on agar (Hirsutella rhossiliensis [2]; isolate JA16-1): 0.0 mm-in-diam
- Growth mm-in-diam, on agar (Hirsutella rhossiliensis [2]; isolate OWVT-1): 0.0^ mm-in-diam
- Spore germination %, on agar (Hirsutella rhossiliensis [2]; isolate ATCC46487): 14.4%
- Spore germination %, on agar (Hirsutella rhossiliensis [2]; isolate JA16-1): 4.4%
- growth in liquit culture (visual rating) (Hirsutella rhossiliensis [2]; isolate JA16-1): 0
- Spore germination %, on agar (Hirsutella rhossiliensis [2]; isolate OWVT-1): 5.6%

SMILES: O=C(O)[C@@H]1CCCN1 [L-proline]
- Growth mm-in-diam, on agar (Hirsutella rhossiliensis [2]; isolate ATCC46487): 47.2 mm-in-diam
- Growth mm-in-diam, on agar (Hirsutella rhossiliensis [2]; isolate JA16-1): 17.0 mm-in-diam
- Growth mm-in-diam, on agar (Hirsutella rhossiliensis [2]; isolate OWVT-1): 23.8 mm-in-diam
- Spore germination %, on agar (Hirsutella rhossiliensis [2]; isolate ATCC46487): 86.7%
- Spore germination %, on agar (Hirsutella rhossiliensis [2]; isolate JA16-1): 86.7%
- Spore germination %, on agar (Hirsutella rhossiliensis [2]; isolate OWVT-1): 60.0%
- growth in liquit culture (visual rating) (Hirsutella rhossiliensis [2]; isolate OWVT-1): III (III = hyphae growth or colonies form a pellet, less than 2.5 ml)

SMILES: N[C@@H](Cc1ccc(O)cc1)C(=O)O [L-tyrosine]
- Spore germination %, on agar (Hirsutella rhossiliensis [2]; isolate ATCC46487): 91.1%
- Spore germination %, on agar (Hirsutella rhossiliensis [2]; isolate JA16-1): 86.7%
- Spore germination %, on agar (Hirsutella rhossiliensis [2]; isolate OWVT-1): 67.8%

SMILES: O=[N+]([O-])[O-].[Na+] [NaNO3]
- Growth mm-in-diam, on agar (Hirsutella rhossiliensis [2]; isolate ATCC46487): 39.2 mm-in-diam
- Growth mm-in-diam, on agar (Hirsutella rhossiliensis [2]; isolate JA16-1): 15.3 mm-in-diam
- Growth mm-in-diam, on agar (Hirsutella rhossiliensis [2]; isolate OWVT-1): 21.7 mm-in-diam
- Spore germination %, on agar (Hirsutella rhossiliensis [2]; isolate ATCC46487): 86.7%
- Sporulation 10^3/cm^2, on agar (Hirsutella rhossiliensis [2]; isolate ATCC46487): 10.0 10^3/cm^2
- growth in liquit culture (visual rating) (Hirsutella rhossiliensis [2]; isolate ATCC46487): IV (IV = the pellet diameter larger than 1 cm, but the total volume distribution less than 5 ml)
- Spore germination %, on agar (Hirsutella rhossiliensis [2]; isolate JA16-1): 73.3%
- Sporulation 10^3/cm^2, on agar (Hirsutella rhossiliensis [2]; isolate JA16-1): 6.4 10^3/cm^2
- growth in liquit culture (visual rating) (Hirsutella rhossiliensis [2]; isolate JA16-1): I
- Spore germination %, on agar (Hirsutella rhossiliensis [2]; isolate OWVT-1): 55.6%
- Sporulation 10^3/cm^2, on agar (Hirsutella rhossiliensis [2]; isolate OWVT-1): 35.9 10^3/cm^2
